Measured values from US10363257B2 (ZENITH EPIGENETICS LTD., priority 2013, dated 2019).
pIC50: −log10 of the molar value.

Experiments:
c-myc = experiment: Inhibition of c-myc expression (mRNA, real-time PCR) in MV4-11 cells; assay type: cell-based; conditions: Human AML MV4-11 cells, 3 h, cMYC mRNA
Summary of the method: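 MV4-11 cells treated 3 h at 37° C with increasing compound concentrations or 0.1% DMSO, in triplicate. cMYC mRNA quantified by one-step TaqMan real-time PCR, Ct normalized to internal control (Cyclophilin primers used), fold expression relative to control.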

hIL-17 mRNA = experiment: Inhibition of hIL-17 mRNA transcription in OKT3-stimulated peripheral blood mononuclear cells; assay type: cell-based; conditions: PBMC, human peripheral blood mononuclear cells, OKT3 antibody, 6 h, read-out: IL-17 activity
Procedure: In this example, hIL-17 mRNA in human peripheral blood mononuclear cells was quantitated to measure the transcriptional inhibition of hIL-17 when treated with a compound of the invention.
Human peripheral blood mononuclear cells were plated (2.0×10^5 cells per well) in a 96-well plate in 45 μL OpTimizer T Cell expansion media containing 20 ng/ml IL-2 and penicillin/streptomycin. The cells were treated with the test compound (45 μL at 2× concentration), and then the cells were incubated at 37° C. for 1 h before addition of 10× stock OKT3 antibody at 10 μg/ml in media. Cells were incubated at 37° C. for 6 h before the cells were harvested. At time of harvest, cells were centrifuged (800 rpm, 5 min). Spent media was removed and cell lysis solution (70 μL) was added to the cells in each well and incubated for 5-10 min at room temperature, to allow for complete cell lysis and detachment. mRNA was then prepared using the “mRNA Catcher PLUS plate” (Invitrogen), according to the protocol supplied. After the last wash, as much wash buffer as possible was aspirated without allowing the wells to dry. Elution buffer (E3, 70 μL) was then added to each well. mRNA was then eluted by incubating the mRNA Catcher PLUS plate with Elution Buffer for 5 min at 68° C. and then immediately placing the plate on ice.
The eluted mRNA isolated was then used in a one-step quantitative RT-PCR reaction, using components of the Ultra Sense Kit together with Applied Biosystems primer-probe mixes. Real-time PCR data was analyzed, normalizing the Ct values for hIL-17 to an internal control, prior to determining the fold induction of each unknown sample, relative to the control.

human AML MV-4-11 cells = experiment: Inhibition of cell proliferation in MV4-11 cells (CellTiter Aqueous One); assay type: cell-based; conditions: for pIC50: MV4-11, 72 h
Summary of the method: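 Exponentially growing MV-4-11 cells (5×10^4/well) were treated immediately with two-fold dilutions of compound from 30 μM to 0.2 μM, in triplicate, for 72 h at 37° C, 5% CO2. Viability was measured by MTS absorbance at 490 nm after 3–4 h. Proliferation relative to DMSO after blank correction gave IC50.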

hIL-6 mRNA = experiment: Inhibition of hIL-6 mRNA transcription in LPS-stimulated U937 cells; assay type: cell-based; conditions: Homo sapiens, U-937; PMA-differentiated U937 cells, 1 h pretreatment, 1 ug/mL LPS stimulation, 3 h; read-out: IL-6 activity (Inhibition of hIL-6 mRNA Transcription)
Summary of the method: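 U937 cells differentiated 3 days with 60 ng/mL PMA, pretreated 1 h with compound (0.1% DMSO), then stimulated with 1 ug/mL E. coli LPS for 3 h at 37 °C. hIL-6 mRNA measured by one-step TaqMan RT-qPCR, normalized to cyclophilin. Fold expression relative to control; triplicate wells.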

[1] = target: T1, Brd4 bromodomain 1 (BRD4(1)) (Homo sapiens, UniProt O60885); experiment: Inhibition of tetra-acetylated histone H4 binding to Brd4 bromodomain 1 (TR-FRET); conditions: tetra-acetylated histone H4 peptide, first bromodomain of Brd4
T1 construct: made in house; host or cells: E. coli BL21(DE3)
Summary of the method: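 His-tagged BRD4(1) from E. coli (200 nM) with biotinylated tetra-acetylated H4 peptide (25-50 nM), Eu-cryptate streptavidin and XL665 anti-His, in HEPES pH 7.4/phosphate/KF buffer, 0.2% DMSO. After 2 h at room temperature, TR-FRET 665/620 nm ratio read; IC50 from dose-response curves.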

SMILES | pIC50 (c-myc) | pIC50 (hIL-17 mRNA) | pIC50 (human AML MV-4-11 cells) | pIC50 (hIL-6 mRNA) | pIC50 [1] | Cell Proliferation activity (human AML MV-4-11 cells; 72 h)
Cc1noc(C)c1-c1cnc2[nH]c(=O)n(Cc3ccccc3)c2c1 [Example Compound 10, 1-Benzyl-6-(3,5-dimethylisoxazol-4-yl)-1H-imidazo[4,5-b]pyridin-2(3H)-one] | 5.52 to 6.52 | ≥ 6.52 | 5.52 to 6.52 | ≥ 6.52 | ≥ 6.52 | –
CC(=O)Nc1cc(-c2c(C)noc2C)cc2c1nc(C)n2Cc1ccccc1 [Example Compound 64, N-(1-benzyl-6-(3,5-dimethylisoxazol-4-yl)-2-methyl-1H-benzo[d]imidazol-4-yl)acetamide] | ≥ 6.52 | ≥ 6.52 | 5.52 to 6.52 | ≥ 6.52 | ≥ 6.52 | –
Cc1noc(C)c1-c1cnc2[nH]c(=O)n(Cc3ccc(Cl)cc3)c2c1 [compound 105, 1-(4-chlorobenzyl)-6-(3,5-dimethylisoxazol-4-yl)-1H-imidazo[4,5-b]pyridin-2(3H)-one] | 5.52 to 6.52 | 5.52 to 6.52 | 5.52 to 6.52 | 5.52 to 6.52 | ≥ 6.52 | –
Cc1noc(C)c1-c1cnc2cnn(Cc3ccc(F)cc3)c2c1 [Example Compound 51, 4-(1-(4-fluorobenzyl)-1H-pyrazolo[4,3-b]pyridin-6-yl)-3,5-dimethylisoxazole] | 5.52 to 6.52 | 5.52 to 6.52 | 5.52 to 6.52 | 5.52 to 6.52 | ≥ 6.52 | –
Cc1noc(C)c1-c1cnc2[nH]c(=O)n(Cc3cccs3)c2c1 [compound 106, 6-(3,5-dimethylisoxazol-4-yl)-1-(thiophen-2-ylmethyl)-1H-imidazo[4,5-b]pyridin-2(3H)-one] | 5.52 to 6.52 | 5.52 to 6.52 | 5.52 to 6.52 | 5.52 to 6.52 | ≥ 6.52 | –
Cc1noc(C)c1-c1cnc2ncn(C(C)c3ccccc3)c2c1 (stereo not shown) [Example Compound 30] | 5.52 to 6.52 | 5.52 to 6.52 | 5.52 to 6.52 | 5.52 to 6.52 | ≥ 6.52 | –
Cc1noc(C)c1-c1cnc2ncn(Cc3ccccc3)c2c1 [Example Compound 5, 4-(1-Benzyl-1H-imidazo[4,5-b]pyridin-6-yl)-3,5-dimethylisoxazole] | 5.52 to 6.52 | 5.52 to 6.52 | 5.52 to 6.52 | 5.52 to 6.52 | ≥ 6.52 | –
Cc1noc(C)c1-c1cnc2ncn(Cc3ccc(F)cc3)c2c1 [Example Compound 45, 4-(1-(4-fluorobenzyl)-1H-imidazo[4,5-b]pyridin-6-yl)-3,5-dimethylisoxazole] | 5.52 to 6.52 | 5.52 to 6.52 | 5.52 to 6.52 | 5.52 to 6.52 | ≥ 6.52 | –
Cc1noc(C)c1-c1cnc2nc(C)n(Cc3ccccc3)c2c1 [Example Compound 13, 4-(1-benzyl-2-methyl-1H-imidazo[4,5-b]pyridin-6-yl)-3,5-dimethylisoxazole] | 5.52 to 6.52 | 5.52 to 6.52 | 5.52 to 6.52 | ≥ 6.52 | ≥ 6.52 | –
Cc1noc(C)c1-c1cc(N)c2nc(C)n(Cc3ccccc3)c2c1 [Example Compound 55, 1-benzyl-6-(3,5-dimethylisoxazol-4-yl)-2-methyl-1H-benzo[d]imidazol-4-amine] | ≥ 6.52 | ≥ 6.52 | ≥ 6.52 | ≥ 6.52 | ≥ 6.52 | –
Cc1noc(C)c1-c1cc(N)c2c(c1)ncn2Cc1ccccc1 [Example Compound 8, 1-Benzyl-5-(3,5-dimethylisoxazol-4-yl)-1H-benzo[d]imidazol-7-amine] | 5.52 to 6.52 | 5.52 to 6.52 | 5.52 to 6.52 | 5.52 to 6.52 | ≥ 6.52 | –
Cc1noc(C)c1-c1cnc2[nH]c(=O)n(C(C)c3ccccc3)c2c1 (stereo not shown) [compound 112, 6-(3,5-dimethylisoxazol-4-yl)-1-(1-phenylethyl)-1H-imidazo[4,5-b]pyridin-2(3H)-one] | ≥ 6.52 | ≥ 6.52 | 5.52 to 6.52 | 5.52 to 6.52 | ≥ 6.52 | –
CCNc1nc2c(N)cc(-c3c(C)noc3C)cc2n1Cc1ccccc1 [Example Compound 19, 1-benzyl-6-(3,5-dimethylisoxazol-4-yl)-N^2-ethyl-1H-benzo[d]imidazole-2,4-diamine] | ≥ 6.52 | ≥ 6.52 | ≥ 6.52 | ≥ 6.52 | ≥ 6.52 | –
CCNc1nc2c([N+](=O)[O-])cc(-c3c(C)noc3C)cc2n1Cc1ccccc1 [Example Compound 18, 1-benzyl-6-(3,5-dimethylisoxazol-4-yl)-N-ethyl-4-nitro-1H-benzo[d]imidazol-2-amine] | ≥ 6.52 | 5.52 to 6.52 | ≥ 6.52 | 5.52 to 6.52 | ≥ 6.52 | –
Cc1noc(C)c1-c1cc(N)c2nc(C)n(CC3CCC3)c2c1 [compound 132, 1-(cyclobutylmethyl)-6-(3,5-dimethylisoxazol-4-yl)-2-methyl-1H-benzo[d]imidazol-4-amine] | 5.52 to 6.52 | – | 5.52 to 6.52 | ≥ 6.52 | ≥ 6.52 | –
Cc1noc(C)c1-c1cnc2c(C)nn(Cc3ccc(F)cc3)c2c1 [Example Compound 53, 4-(1-(4-fluorobenzyl)-3-methyl-1H-pyrazolo[4,3-b]pyridin-6-yl)-3,5-dimethylisoxazole] | – | 4.52 to 5.52 | – | 5.52 to 6.52 | ≥ 6.52 | Not active
Cc1noc(C)c1-c1cc(N)c2cnn(Cc3ccc(Cl)cc3)c2c1 [compound 102, 1-(4-chlorobenzyl)-6-(3,5-dimethylisoxazol-4-yl)-1H-indazol-4-amine] | ≥ 6.52 | – | 5.52 to 6.52 | ≥ 6.52 | ≥ 6.52 | –
CC(=O)Nc1cc(-c2c(C)noc2C)cc2c1[nH]c(=O)n2Cc1ccccc1 [compound 111, N-(1-benzyl-6-(3,5-dimethylisoxazol-4-yl)-2-oxo-2,3-dihydro-1H-benzo[d]imidazol-4-yl)acetamide] | ≥ 6.52 | – | ≥ 6.52 | ≥ 6.52 | ≥ 6.52 | –
Cc1noc(C)c1-c1cc(N)c2[nH]c(=O)n(Cc3ccccc3)c2c1 [Example Compound 16, 4-amino-1-benzyl-6-(3,5-dimethylisoxazol-4-yl)-1H-benzo[d]imidazol-2(3H)-one] | ≥ 6.52 | 5.52 to 6.52 | ≥ 6.52 | ≥ 6.52 | ≥ 6.52 | –
